The IC50 is the midpoint of a concentration-inhibition curve. High values mean weaker potency, low ones greater potency.

Molecules are shown by their SMILES. Where a name gives a salt, the structure may show the parent alone.
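Note: rho kinase enzyme reaction halted with EDTA, phospho- and non-phospho peptide separated for read-out, kinase activity inhibition derived across a dose-response series, DMSO under 2%.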

In this experiment the target is ROCK2 (Homo sapiens (Human), UniProt O75116). Briefly: biochemical.
ROCK2, sequence (O75116 whole entry, species assumed): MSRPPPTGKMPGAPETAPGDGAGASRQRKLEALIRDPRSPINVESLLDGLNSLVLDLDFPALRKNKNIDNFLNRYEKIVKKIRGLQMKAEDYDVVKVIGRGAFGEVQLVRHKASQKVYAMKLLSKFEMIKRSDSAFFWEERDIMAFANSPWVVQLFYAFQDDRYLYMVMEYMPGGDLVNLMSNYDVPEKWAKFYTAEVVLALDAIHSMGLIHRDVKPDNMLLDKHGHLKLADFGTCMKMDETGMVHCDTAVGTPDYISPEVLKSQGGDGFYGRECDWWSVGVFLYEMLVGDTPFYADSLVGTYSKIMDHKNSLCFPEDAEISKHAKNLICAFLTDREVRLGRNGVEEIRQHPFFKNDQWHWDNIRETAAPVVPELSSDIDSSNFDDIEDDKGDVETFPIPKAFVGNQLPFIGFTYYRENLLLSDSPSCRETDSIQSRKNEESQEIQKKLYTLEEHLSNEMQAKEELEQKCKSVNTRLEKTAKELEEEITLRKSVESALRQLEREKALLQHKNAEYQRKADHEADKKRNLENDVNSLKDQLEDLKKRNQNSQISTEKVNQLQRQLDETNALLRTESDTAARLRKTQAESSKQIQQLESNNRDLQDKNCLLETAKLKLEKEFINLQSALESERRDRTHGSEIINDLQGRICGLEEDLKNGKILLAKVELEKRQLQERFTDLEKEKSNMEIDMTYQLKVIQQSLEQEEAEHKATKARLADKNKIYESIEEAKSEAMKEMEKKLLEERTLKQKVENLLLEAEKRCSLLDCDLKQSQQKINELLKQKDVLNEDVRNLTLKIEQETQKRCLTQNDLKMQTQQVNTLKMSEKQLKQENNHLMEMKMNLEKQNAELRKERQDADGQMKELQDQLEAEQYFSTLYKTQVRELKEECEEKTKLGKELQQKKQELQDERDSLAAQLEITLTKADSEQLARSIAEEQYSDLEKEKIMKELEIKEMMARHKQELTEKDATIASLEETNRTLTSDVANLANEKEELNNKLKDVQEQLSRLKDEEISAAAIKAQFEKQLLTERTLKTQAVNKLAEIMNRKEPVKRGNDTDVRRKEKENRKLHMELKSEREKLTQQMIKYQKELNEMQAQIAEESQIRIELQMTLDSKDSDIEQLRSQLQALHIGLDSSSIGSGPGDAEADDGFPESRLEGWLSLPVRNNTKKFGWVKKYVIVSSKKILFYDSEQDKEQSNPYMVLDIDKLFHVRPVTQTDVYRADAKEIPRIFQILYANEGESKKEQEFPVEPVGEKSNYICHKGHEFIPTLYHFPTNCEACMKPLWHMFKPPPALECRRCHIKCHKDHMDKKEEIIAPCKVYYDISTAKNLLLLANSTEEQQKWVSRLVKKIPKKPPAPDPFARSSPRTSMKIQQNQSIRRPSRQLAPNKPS
Regarding `COc1cccc(N(CCO)C2CCN(c3ccc(-c4cn[nH]c4)cc3)C2=O)c1` (stereo not shown) [Example 12, 1-(4-(1H-pyrazol-4-yl)phenyl)-3-((2-hydroxyethyl)(3-methoxyphenyl)amino)pyrrolidin-2-one], the concentration for half-maximal inhibition (IC50) was 10 to 100 nM.
Under `O=C1C(NCc2ccccc2)CCN1c1ccc(-c2cn[nH]c2)cc1` (stereo not shown) [Example 57, 1-(4-(1H-pyrazol-4-yl)phenyl)-3-(benzylamino)pyrrolidin-2-one] stands 100 to 2200 nM; under `O=C1C(Nc2ccccc2)CCN1c1ccc(-c2cn[nH]c2)cc1` (stereo not shown) [Example 58, 1-(4-(1H-pyrazol-4-yl)phenyl)-3-(phenylamino)pyrrolidin-2-one], 10 to 100 nM.
Consider `O=C1C(NCCc2ccccc2)CCN1c1ccc(-c2cn[nH]c2)cc1` (stereo not shown) [Example 59, 1-(4-(1H-pyrazol-4-yl)phenyl)-3-(phenethylamino)pyrrolidin-2-one, 2 TFA], for which the IC50 lay in the range of 100 to 2200 nM.
In turn, `COc1cccc([C@@H](C)NC2CCN(c3ccc(-c4cn[nH]c4)cc3)C2=O)c1` (stereo partly drawn) [Example 60, 1-(4-(1H-pyrazol-4-yl)phenyl)-3-(((R)-1-(3-methoxyphenyl)ethyl)amino)pyrrolidin-2-one, TFA] gave an IC50 of 100 to 2200 nM.
Under `O=C1C(NCc2cccc(F)c2)CCN1c1ccc(-c2cn[nH]c2)cc1` (stereo not shown) [Example 61, 1-(4-(1H-pyrazol-4-yl)phenyl)-3-((3-fluorobenzyl)amino)pyrrolidin-2-one, TFA] stands 100 to 2200 nM; under `O=C1C(Nc2cccc(F)c2)CCN1c1ccc(-c2cn[nH]c2)cc1` (stereo not shown) [Example 62, 1-(4-(1H-pyrazol-4-yl)phenyl)-3-((3-fluorophenyl)amino)pyrrolidin-2-one], less than 10 nM; under `COc1cccc(NC2CCN(c3ccc(-c4cn[nH]c4)cc3)C2=O)c1` (stereo not shown) [Example 63, 1-(4-(1H-pyrazol-4-yl)phenyl)-3-((3-methoxyphenyl)amino)pyrrolidin-2-one], less than 10 nM.
Turning to `O=C1C(Oc2ccccc2)CCN1c1ccc(-c2cn[nH]c2)cc1` (stereo not shown) [Example 64, 1-(4-(1H-pyrazol-4-yl)phenyl)-3-phenoxypyrrolidin-2-one], the concentration for half-maximal inhibition (IC50) was in the range of 10 to 100 nM.
Next, `COc1cccc(C(=O)NC2CCN(c3ccc(-c4cn[nH]c4)cc3)C2=O)c1` (stereo not shown) [Example 65, N-(1-(4-(1H-Pyrazol-4-yl)phenyl)-2-oxopyrrolidin-3-yl)-3-methoxybenzamide]: 100 to 2200 nM; `COc1cc(N2CCC(Nc3cccc(OC(F)F)c3)C2=O)ccc1-c1cn[nH]c1` (stereo not shown) [Example 66, 3-((3-(Difluoromethoxy)phenyl)amino)-1-(3-methoxy-4-(1H-pyrazol-4-yl)phenyl)pyrrolidin-2-one]: less than 10 nM.
Under `COc1cc(N2CCC(Nc3ccccc3)C2=O)ccc1-c1cn[nH]c1` (stereo not shown) [Example 67, 1-(3-methoxy-4-(1H-pyrazol-4-yl)phenyl)-3-(phenylamino)pyrrolidin-2-one] stands less than 10 nM; under `COc1cccc(NC2CCN(c3ccc(-c4cn[nH]c4)c(OC)c3)C2=O)c1` (stereo not shown) [Example 68, 1-(3-methoxy-4-(1H-pyrazol-4-yl)phenyl)-3-((3-methoxyphenyl)amino)pyrrolidin-2-one], less than 10 nM.
Next, `COc1cc(N2CCC(Nc3cccc(OC(F)F)c3)C2=O)ccc1-c1cn[nH]c1` (stereo not shown) [Example 69, 3-((3-(difluoromethoxy)phenyl)amino)-1-(3-methoxy-4-(1H-pyrazol-4-yl)phenyl)pyrrolidin-2-one]: 10 to 100 nM; `COc1cc(N2CCC(Nc3cccc(OC(F)(F)F)c3)C2=O)ccc1-c1cn[nH]c1` (stereo not shown) [Example 70, 1-(3-methoxy-4-(1H-pyrazol-4-yl)phenyl)-3-((3-(trifluoromethoxy)phenyl)amino)pyrrolidin-2-one]: 100 to 2200 nM.
As for `COc1cc(N2CCC(Nc3cccc(OC(C)C)c3)C2=O)ccc1-c1cn[nH]c1` (stereo not shown) [Example 71, 3-((3-isopropoxyphenyl)amino)-1-(3-methoxy-4-(1H-pyrazol-4-yl)phenyl)pyrrolidin-2-one, TFA], the half-maximal inhibitory concentration (IC50) was in the range of 10 to 100 nM.

The record behind these values is patent US10112929B2, “Lactams as inhibitors of rock” (BRISTOL-MYERS SQUIBB COMPANY, priority 2015, dated 2018).
